41 compounds from ChEMBL document CHEMBL3507680, “University of Dundee, Gates Library screen for HepG2 cell viability” can be followed below.

A short description of the series: Human HepG2 cell viability assay in 384 well format. Format: toxicity, cell-based. Also on record: dose 125 nL, time 70.5 hour; concentration not given beside the values. Particulars: HepG2 cells, read-out: Inhibition.

Structures are written as SMILES.

Regarding `CN1CCN(CC(NCc2ccc(F)cc2)c2ccccc2)CC1` (stereo unspecified), the cytotoxicity at 70.5 h is 17.2%. The figure for `Cc1cnc(CN(C)C2CCN(Cc3ccc(Cl)s3)C2)o1` (stereo unspecified) is -15.5%; for `Cc1cnc(CN(C)C2CCN(Cc3sc(C)nc3C)C2)o1` (stereo unspecified) it is 29.7%; for `CN1CCN(CC(NCc2ccc(F)c(F)c2)c2ccccc2)CC1` (stereo unspecified) it is 5.13%.

On to `Cc1cnc(CN(C)C2CCN(Cc3cnc(C)s3)C2)o1` (stereo unspecified), for which the cytotoxicity at 70.5 h was -8.23%. Turning to `N#Cc1cccc(CNC(=O)C2=NN(c3ccccc3)C(=O)CN2)c1`, the cytotoxicity at 70.5 h is 9.97%. Then `N#Cc1ccc(CNC(=O)C2=NN(c3ccccc3)C(=O)CN2)cc1`, with -7.68%; and `O=C(CNc1cccc2c1CCCC2)Nc1ccccc1Br`, with 2.61%; and `Cc1nn(C)c(N(C)C)c1CNCc1cccc(Cn2cccn2)c1`, with 9.51%. Then `Cc1nn(C)c(N(C)C)c1CNCc1cccc(Br)c1`, with -5.91%. Then `Cc1cccn2c(=O)cc(CN3CCCC3Cn3cncn3)nc12` (stereo unspecified), with -5.2%; and `CN1CC(C(=O)NC(C)(C)CNC(=O)OC(C)(C)C)CC1=O` (stereo unspecified), with 9.2%. For `Cc1cnn(CC2CCCN2Cc2cc(=O)n3c(C)csc3n2)c1` (stereo unspecified), the cytotoxicity at 70.5 h was -4.63%. In the case of `Cc1nc(CN2CCN(C(=O)Cc3cccc(Cl)c3)CC2)no1`, the cytotoxicity at 70.5 h is -5.05%.

As for `CC(C)Oc1ccc(C(=O)Cn2cnnc2[S+](C)[O-])cc1` (stereo unspecified), the cytotoxicity at 70.5 h is -7.07%.

With `C[S+]([O-])c1nncn1CC(=O)c1ccc(OC(F)F)cc1` (stereo unspecified), the cytotoxicity at 70.5 h is -2.01%.

With `O=S(=O)(c1ccc(F)cc1)N1CCN(CCCn2ccnc2)CC1`, the cytotoxicity at 70.5 h was -1.51%. Consider `CCN1CCN(Cc2nc(C)no2)CC1`, for which the cytotoxicity at 70.5 h turned out to be 12.7%. The figure for `C[S+]([O-])c1nncn1CC(=O)c1cccc(C(F)(F)F)c1` (stereo unspecified) is -1.93%; for `CCN1CC(C(=O)NC(C)(C)CC)CC1=O` (stereo unspecified) it is -3.27%; for `CC(C)(C)OC(=O)NCC1CCCCN1Cc1ccccn1` (stereo unspecified) it is 1.05%. `COC(C(=O)N1CCN(Cc2noc(C)n2)CC1)c1ccccc1` (stereo unspecified): the cytotoxicity at 70.5 h was -3.29%. Then `Cc1cccn2c(=O)cc(CN3CCCC3Cn3cccn3)nc12` (stereo unspecified), with -1.74%; and `Cc1ccc(S(=O)(=O)N2CCN(CCCn3ccnc3)CC2)cc1`, with -1.75%; and `Cc1cnc(CN2CCC(N(C)Cc3nnc(C)n3C)C2)cn1` (stereo unspecified), with -0.164%.

Consider `CCCN1CCC(NCc2ccncc2)CC1`, for which the cytotoxicity at 70.5 h is -5.69%.

As to `Cc1ccc(NC(=O)c2nc(N3CCCCC3)ncc2Cl)cc1I`, the cytotoxicity at 70.5 h was -7.45%. In the case of `COc1cc(CN(C)C(=O)NCc2cccnc2OC)ccc1SC`, the cytotoxicity at 70.5 h was -0.299%. On to `Cc1ccc(C(=O)NCCCN(C)S(C)(=O)=O)c(=O)[nH]1`, for which the cytotoxicity at 70.5 h is -5.2%. On to `O=C(c1cc2c([nH]c1=O)CCC2)N1CCCCCC1c1ccncc1` (stereo unspecified), for which the cytotoxicity at 70.5 h was -6.24%. For the compound `COc1cc(CN(C)C(=O)NCc2ccccn2)ccc1SC`, the cytotoxicity at 70.5 h came to 15.9%. `COc1cc(CN(C)C(=O)NC2CC2)ccc1SC`: the cytotoxicity at 70.5 h was -3.48%.

As to `COc1cc(CN(C)C(=O)NCC(=O)NC(C)C)ccc1SC`, the cytotoxicity at 70.5 h was -1.54%. For `CSc1cc2c(cc1NC(=O)NCC(=O)N(C)C)OCCO2`, the cytotoxicity at 70.5 h amounted to 0.952%. Regarding `NCC1(c2cccc(C(F)(F)F)c2)CCCCC1`, the cytotoxicity at 70.5 h is -4.79%. Turning to `Cc1cc(CN2CCc3nn(C)c(=O)cc3C2)no1`, the cytotoxicity at 70.5 h was -2.94%. As for `CCS(=O)(=O)N1CCCC(c2nc3ccccc3n2C(C)C)C1` (stereo unspecified), the cytotoxicity at 70.5 h is -3.94%.

`CC(CNC(=O)N1CCN(Cc2ccon2)CC1)Cc1cccs1` (stereo unspecified): the cytotoxicity at 70.5 h was -2.44%.

Turning to `CC(=O)N(C)C1CCN(C(=O)NCC(C)Cc2cccs2)CC1` (stereo unspecified), the cytotoxicity at 70.5 h is -2.57%.

As to `CC(C)(C)NC(=O)Cn1cc(C(N)=O)c(-c2ccccc2)n1`, the cytotoxicity at 70.5 h was -3.41%.

For `CN1CCC(N(C)C(=O)CCc2ccc(F)c(F)c2)C1=O` (stereo unspecified), the cytotoxicity at 70.5 h was -6.34%.
